Experimental data reported in patent publication US20170000775A1, “PHARMACEUTICAL COMPOSITIONS COMPRISING ANTIBACTERIAL AGENTS” (priority 2014, published 2017).
Where a name gives a salt, the structure may show the parent alone.

Assays:
[1] = system: A. baumannii NCTC 13303 producing CHDL oxacillinase [OXA-26] beta-lactamase enzymes; assay: Time kill study against A. baumannii NCTC 13303; type: cell-based, Acinetobacter baumannii; conditions: sulbactam 8 mcg/ml, sodium salt of Formula (I) 4 mcg/ml, imipenem 8 mcg/ml; for Bacterial count, 0 hour: 0 hour (initial inoculum); for Bacterial count, 0 hour / Bacterial count, 2 hour / Bacterial count, 4 hour / Bacterial count, 6 hour / Bacterial count, 8 hour: alone or combined as labelled; for Effect on bacterial count (in words): throughout the duration of the study
Experimental: (§1) In a typical time kill study, the freshly grown cultures were diluted to the required cell density (initial starting inoculum) in Cation adjusted Muller Hinton broth medium (BD, USA). The antibacterial agents (either alone or in combination) at the required concentrations were added into the culture-containing medium. The samples were incubated under shaking condition (120 rpm) at 37° C. Enumeration of viable bacterial count was done every 2 hour by diluting in normal saline and plating on to the Tryptic Soya Agar plates (BD, USA). The plates were incubated for 24 hours to arrive at the viable bacterial count. […] In general, the decrease of 1 Log CFU/ml, corresponds to 90% killing of bacteria. Similarly, 2 Log CFU/ml reductions indicates to 99% killing of bacteria and 3 Log CFU/ml reductions is equal to 99.9% killing of bacteria.
(§2) The assay without any antibacterial agent was taken as control. The sodium salt of a compound of Formula (I), was used for antibacterial testing.

[2] = system: A. baumannii NCTC 13302 producing CHDL oxacillinase [OXA-25] beta-lactamase enzymes; assay: Time kill study against A. baumannii NCTC 13302; type: cell-based, Acinetobacter baumannii; conditions: sulbactam 8 mcg/ml, sodium salt of Formula (I) 4 mcg/ml, imipenem 16 mcg/ml; for Bacterial count, 0 hour: 0 hour (initial inoculum); for Bacterial count, 0 hour / Bacterial count, 2 hour / Bacterial count, 4 hour / Bacterial count, 6 hour / Bacterial count, 8 hour: alone or combined as labelled; for Effect on bacterial count (in words): throughout the duration of the study
Experimental: as §1, §2

Compound | Bacterial count, 0 hour [1] [Log10CFU/ml] | Bacterial count, 2 hour [1] [Log10CFU/ml] | Bacterial count, 4 hour [1] [Log10CFU/ml] | Bacterial count, 6 hour [1] [Log10CFU/ml] | Bacterial count, 8 hour [1] [Log10CFU/ml] | Bacterial count, 0 hour [2] [Log CFU/ml] | Bacterial count, 2 hour [2] [Log CFU/ml] | Bacterial count, 4 hour [2] [Log CFU/ml] | Bacterial count, 6 hour [2] [Log CFU/ml] | Bacterial count, 8 hour [2] [Log CFU/ml] | Effect on bacterial count (in words) [1] | Effect on bacterial count (in words) [2]
C[C@@H](O)[C@H]1C(=O)N2C(C(=O)O)=C(SCCN=CN)C[C@H]12 [Imipenem, imipenem] | 6.17 | 7.84 | 8.13 | 8.26 | 8.23 | 6.36 | 7.74 | 8 | 8.32 | 8.74 | – | –
N#C[C@@H]1CC[C@@H]2CN1C(=O)N2OS(=O)(=O)O [Sodium salt of a compound of Formula (I), sulphuric acid, mono[(1R,2S,5R)-2-cyano-7-oxo-1,6-diazabicyclo[3.2.1]oct-6-yl] ester, sodium salt (1:1)] | 6.17 | 7.6 | 7.9 | 7.95 | 8.1 | 6.36 | 7.8 | 8.0 | 8.1 | 8.15 | not effective to decrease the bacterial count | not effective to decrease the bacterial count
CC1(C)[C@H](C(=O)O)N2C(=O)C[C@H]2S1(=O)=O [Sulbactam, sulbactam] | 6.17 | 7.32 | 7.56 | 7.81 | 7.81 | 6.36 | 6.81 | 7.4 | 7.65 | 7.31 | not effective to decrease the bacterial count | not effective to decrease the bacterial count
